The structures appear in SMILES notation. ≈ marks a conversion by molar mass, not a printed value. A value given as a limit tells only on which side of the number the result lay.

This passage reports MIC, Kd and Acute tolerability results from ChEMBL document CHEMBL1145073, “DNA binding ligands targeting drug-resistant bacteria: structure, activity, and pharmacology” (J Med Chem, 2003).

In assay [1] the test system is Staphylococcus aureus. Description: In vitro antimicrobial activity against methicillin resistant Staphylococcus aureus 27660. The format is functional.
The next assay addresses Nucleic Acid. Put plainly: Apparent binding affinity against DNA (5'-ACAATTAA-3') was determined using DNase I footprinting titration method. Format: nucleic-acid assay. The settings on record: read-out: Kd app.
A short description of assay [2]: In vitro antimicrobial activity against penicillin resistant Streptococcus pneumoniae 51422. The format is functional.
Assay [3] relates to Mus musculus. Put plainly: Acute tolerability of compound […] female mice after intravenous administration was determined; Lethality 5/5. The format is functional, organism-based.
The nature of assay [4]: In vitro antimicrobial activity against penicillin-intermediate Streptococcus pneumoniae 49619. The format is functional.
In assay [5] the test system is Enterococcus faecalis. Put plainly: In vitro antimicrobial activity against vancomycin-susceptible Enterococcus faecalis 29212. Format: functional.
The subject of a further assay is Bacillus cereus. Put plainly: In vitro antimicrobial activity against Bacillus cereus 11778. Format: functional.
The test system of a further assay is Candida albicans. Description: In vitro antimicrobial activity against Candida albicans 38247. Format: functional. Conditions: Candida albicans; read-out: MIC.
In assay [6] the test system is Enterococcus faecalis. Description: In vitro antimicrobial activity against vancomycin-resistant Enterococcus faecalis 51559. Format: functional.
For assay [7], the system named is Staphylococcus aureus. Description: In vitro antimicrobial activity against MSSA 13709. The format is functional.
Assay [8] deals with Mus musculus. Put plainly: Acute tolerability of compound in 4 ICR female mice after intravenous administration was determined; No adverse effects. The format is functional, organism-based.
Assay [9] has as its system Mus musculus. Description: Acute tolerability of compound […] female mice after intravenous administration was determined; 5/5 lethargy. The format is functional, organism-based.
Assay [10] concerns Enterococcus faecalis. Put plainly: In vitro antimicrobial activity against vancomycin-resistant Enterococcus faecalis 51559.

In the case of `Cn1cc(NC(=O)c2cc(NC(=O)c3cc(-c4ccc(Cl)cc4F)cn3C)cn2C)cc1C(=O)NCCN1CCOCC1`, the MIC in the assay on Staphylococcus aureus [1] was 2 µg/mL (≈ 3.28 µM); in [2], 0.062 µg/mL (≈ 0.102 µM); in assay [4] it was 0.25 µg/mL (≈ 0.41 µM); with Enterococcus faecalis [5], 0.5 µg/mL (≈ 0.82 µM); against Bacillus cereus, 0.5 µg/mL (≈ 0.82 µM); in the assay with Candida albicans, > 32 µg/mL. In addition, the MIC with Enterococcus faecalis [6] turned out to be 0.5 µg/mL (≈ 0.82 µM). In addition, on Nucleic Acid, the Kd is 0.1 nM. For the same compound, the Acute tolerability entry in the assay with Mus musculus [3] is “Lethality 5/5”.
On to `Cn1cc(NC(=O)c2cc(NC(=O)c3cc(-c4ccc(F)cc4Cl)cn3C)cn2C)cc1C(=O)NCCN1CCOCC1`, for which the MIC turned out to be 16 µg/mL (≈ 26.2 µM) with Staphylococcus aureus [7], 4 µg/mL (≈ 6.56 µM) in assay [4] and 8 µg/mL (≈ 13.1 µM) against Enterococcus faecalis [5].
As for `Cn1cc(NC(=O)c2cc(NC(=O)c3cc(NC(=O)c4sccc4Cl)cn3C)cn2C)cc1C(=O)NCCN1CCC(F)(F)CC1`, the MIC against Staphylococcus aureus [1] came to 2 µg/mL (≈ 2.96 µM); in assay [4], 0.5 µg/mL (≈ 0.741 µM); in the assay with Enterococcus faecalis [5], 2 µg/mL (≈ 2.96 µM). Also, at Nucleic Acid, the Kd amounted to 50 nM.
As to `Cn1cc(NC(=O)c2cc(NC(=O)c3cc(NC(=O)c4sccc4Cl)cn3C)cn2C)cc1C(=O)NCCN1CCSCC1`, the MIC is 1 µg/mL (≈ 1.52 µM) with Staphylococcus aureus [1]; 0.062 µg/mL (≈ 0.0943 µM) in assay [2]; 0.125 µg/mL (≈ 0.19 µM) in assay [4]; 0.5 µg/mL (≈ 0.761 µM) with Enterococcus faecalis [5]; 0.5 µg/mL (≈ 0.761 µM) in the assay with Bacillus cereus; > 32 µg/mL in the assay on Candida albicans. In addition, the MIC in the assay on Enterococcus faecalis [6] was found to be 2 µg/mL (≈ 3.04 µM). For the same compound, the Kd on Nucleic Acid is < 1 nM. In addition, the Acute tolerability result in the assay on Mus musculus [8] is “No adverse effects”.
With `Cn1cc(NC(=O)c2cc(NC(=O)c3cc(NC(=O)c4sc5cc(F)ccc5c4Cl)cn3C)cn2C)cc1C(=O)NCCN1CCOCC1`, the Acute tolerability result in the assay with Mus musculus [8] is “No adverse effects”. The MIC in assay [4] is 0.125 µg/mL (≈ 0.176 µM); against Enterococcus faecalis [5] it was 0.25 µg/mL (≈ 0.353 µM); against Bacillus cereus it was 0.25 µg/mL (≈ 0.353 µM); in the assay on Candida albicans, > 32 µg/mL.
For `Cn1cc(NC(=O)c2cc(NC(=O)c3cc(-c4nccs4)cn3C)cn2C)cc1C(=O)NCCN1CCOCC1`, the MIC (in the assay on Staphylococcus aureus [7]; in assay [4]; against Enterococcus faecalis [5]) was > 32 µg/mL throughout.
As to `Cn1cc(NC(=O)c2cc(NC(=O)c3cc(NC(=O)c4sccc4Cl)cn3C)cn2C)cc1C(=O)NCCN1CCCC1`, the MIC was determined as 8 µg/mL (≈ 12.8 µM) in the assay with Staphylococcus aureus [1], 2 µg/mL (≈ 3.2 µM) in assay [4] and 16 µg/mL (≈ 25.6 µM) with Enterococcus faecalis [5]. In addition, the Kd on Nucleic Acid came out at 2 nM.
With `Cc1cnc(-c2cc(C(=O)Nc3cc(C(=O)Nc4cc(C(=O)NCCN5CCOCC5)n(C)c4)n(C)c3)n(C)c2)cn1`, the MIC is 2 µg/mL (≈ 3.49 µM) with Staphylococcus aureus [1]; 0.25 µg/mL (≈ 0.436 µM) in assay [2]; 0.25 µg/mL (≈ 0.436 µM) in assay [4]; 0.5 µg/mL (≈ 0.872 µM) against Enterococcus faecalis [5]; 1 µg/mL (≈ 1.74 µM) in the assay with Bacillus cereus; > 32 µg/mL in the assay with Candida albicans. This compound showed an MIC with Enterococcus faecalis [6] of 4 µg/mL (≈ 6.97 µM). In the assay with Mus musculus [3], the Acute tolerability result is “Lethality 5/5”.
In the case of `Cn1cc(NC(=O)c2cc(NC(=O)c3cc(NC(=O)c4sccc4Cl)cn3C)cn2C)cc1C(=O)NCCc1ccccn1`, the MIC (in the assay on Staphylococcus aureus [1]; in assay [4]; in the assay on Enterococcus faecalis [5]) was 2 µg/mL (≈ 3.16 µM) throughout. For the same compound, the Kd at Nucleic Acid turned out to be 100 nM.
Regarding `Cn1cc(NC(=O)c2cc(NC(=O)c3cc(-c4sccc4O)cn3C)cn2C)cc1C(=O)NCCN1CCOCC1`, the MIC (with Staphylococcus aureus [1]; in assay [4]; against Enterococcus faecalis [5]) was > 32 µg/mL throughout.
Turning to `Cn1cc(NC(=O)c2cc(NC(=O)c3cc(NC(=O)c4sccc4Cl)cn3C)cn2C)cc1C(=O)NCCN1CCCCC1`, the MIC with Staphylococcus aureus [1] came to 0.5 µg/mL (≈ 0.782 µM); in assay [2], 2 µg/mL (≈ 3.13 µM); in assay [4], 0.25 µg/mL (≈ 0.391 µM); with Enterococcus faecalis [5], 0.5 µg/mL (≈ 0.782 µM); with Bacillus cereus it was 0.5 µg/mL (≈ 0.782 µM); in the assay on Candida albicans it was 32 µg/mL (≈ 50.1 µM). Moreover, in the assay on Enterococcus faecalis [10], the MIC came out at 2 µg/mL (≈ 3.13 µM). The Acute tolerability with Mus musculus [9] was 5/5 lethargy. Also, the Kd on Nucleic Acid amounted to 5 nM.
For `Cn1cc(NC(=O)c2cc(NC(=O)c3cc(NC(=O)c4cc5ccccc5cn4)cn3C)cn2C)cc1C(=O)NCCN1CCSCC1`, the MIC against Staphylococcus aureus [1] is 0.125 µg/mL (≈ 0.187 µM); in assay [2], 0.062 µg/mL (≈ 0.0928 µM); in [4], 0.031 µg/mL (≈ 0.0464 µM); with Enterococcus faecalis [5] it was 0.25 µg/mL (≈ 0.374 µM); in the assay on Bacillus cereus it was 0.25 µg/mL (≈ 0.374 µM); with Candida albicans it was > 32 µg/mL. Moreover, in the assay with Enterococcus faecalis [6], the MIC was determined as 0.125 µg/mL (≈ 0.187 µM). For the same compound, the Kd on Nucleic Acid is 1 nM. The Acute tolerability entry in the assay on Mus musculus [8] is “No adverse effects”.
In the case of `Cn1cc(NC(=O)c2cc(NC(=O)c3cc(-c4cccc(F)c4)cn3C)cn2C)cc1C(=O)NCCN1CCOCC1`, the MIC against Staphylococcus aureus [1] worked out at 32 µg/mL (≈ 55.6 µM); in [4], 16 µg/mL (≈ 27.8 µM); with Enterococcus faecalis [5], 32 µg/mL (≈ 55.6 µM).
Consider `CSc1ccsc1-c1cc(C(=O)Nc2cc(C(=O)Nc3cc(C(=O)NCCN4CCOCC4)n(C)c3)n(C)c2)n(C)c1`, for which the MIC turned out to be 4 µg/mL (≈ 6.56 µM) against Staphylococcus aureus [1], 0.125 µg/mL (≈ 0.205 µM) in assay [4] and 8 µg/mL (≈ 13.1 µM) against Enterococcus faecalis [5].
Taken in the same sequence, the figures for `Cn1cc(NC(=O)c2cc(NC(=O)c3cc(-c4ccc5nonc5c4)cn3C)cn2C)cc1C(=O)NCCN1CCOCC1` were 8 µg/mL (≈ 13.3 µM), 8 µg/mL (≈ 13.3 µM) and 8 µg/mL (≈ 13.3 µM).
In the case of `Cn1cc(NC(=O)c2cc(NC(=O)c3cc(-c4ccncc4)cn3C)cn2C)cc1C(=O)NCCN1CCOCC1`, the MIC was > 32 µg/mL against Staphylococcus aureus [1], 2 µg/mL (≈ 3.58 µM) in [4] and 32 µg/mL (≈ 57.3 µM) in the assay with Enterococcus faecalis [5].
The corresponding values for `Cn1cc(NC(=O)c2cc(NC(=O)c3cc(-c4csnn4)cn3C)cn2C)cc1C(=O)NCCN1CCOCC1` are 32 µg/mL (≈ 56.6 µM), 1 µg/mL (≈ 1.77 µM) and 4 µg/mL (≈ 7.07 µM).
